Experimental data reported in publication PMC11817372, “The Silkworm (Bombyx mori) Neuropeptide Orcokinin’s Efficiency in Whitening and Skincare” (International Journal of Molecular Sciences, 2025).
Read-outs that look alike come from different tables or passages of the source.

Assays:
Tyrosinase [1] = system: Tyrosinase; set-up: method as in PMID 23134995; details: cited from earlier work
Source text: Neuropeptides with biological functions were called neuropeptides if they were secreted by neural tissues and involved in nervous system functions, which were characterized by low content, high activity, and extensive and complex functions (including food intake regulation, improved metabolism, neural regulation and reproduction, etc.). However, there have been few reports on the pigmentation regulation of neuropeptide. One important function of BommoOK, as a multifunctional neuropeptide, was pigmentation regulation. In silkworm q-l (quail like) mutants, BommoOK was a losing function, a ...

Tyrosinase [2] = details: for Inhibitory rate on tyrosinase, Average: average over 5, 0.1, 0.05 and 0.025 mmol/L; for highest inhibition rate on tyrosinase: highest rate among the tested concentrations; for effect on tyrosinase reaction course (in words): absorbance time course 10-180 s compared with negative control completed at 60 s
Experimental: The peptide solution (5 mmol/L) was then diluted 50-fold (0.1 mmol/L), 100-fold (0.05 mmol/L), and 200-fold (0.025 mmol/L), respectively, and then the inhibitory rate was calculated after a 5 min reaction.

[3] = system: UV-irradiated guinea pig skin; type: in vivo, guinea pig (Cavia porcellus); details: peptide solution 5 mmol/L painted on UV-irradiated back skin, sections after 24 h; for pathological tissue findings (Masson staining and HE staining): versus deionized water side
Experimental: Model preparation: Six adult healthy guinea pigs with normal development were selected. The fur on both sides of the back was shaved to expose a circular area with a diameter of 4 cm. Ultraviolet (UV) irradiation was performed at 10 cm from the skin in the exposed area, once daily with a dose of 700 mJ/cm^2, and continued for 7 consecutive days, with a cumulative dose of […]. A metal halide lamp was used as the light source with a power of 1000 W and a peak spectrum of 360 nm, including 70% long-wave ultraviolet (UVA) and 4% medium-wave ultraviolet (UVB). After UV-irradiation treatment, the peptide solution (5 mmol/L) was painted to the right, and an equal amount of deionized water was applied to the left. Tissue sections and staining observations were performed after 24 h.
Sectioning: Approximately 0.4 cm^3 of subcutaneous tissue from the drug administration area was excised, cleaned with physiological saline, and fixed. After dehydration (DIAPATH, Donatello, Milan, Italy) and hardening treatment, it was subsequently made transparent and subjected to a wax immersion treatment. After paraffin embedding (Wuhan Junjie Electronics Co., Ltd., JB-P5, Wuhan, China), the tissue was sectioned using a microtome (Shanghai Leica Instrument Co., Ltd., RM2016, Shanghai, China). The arranged sections were organized (Zhejiang Jinhua Kedi Instrument Equipment Co., Ltd., KD-P, Jinhua, China) for HE staining and Masson staining.
HE staining: The paraffin sections were placed in xylene I for 20 min, xylene II for 20 min, anhydrous ethanol I for 5 min, anhydrous ethanol II for 5 min, and 75% alcohol for 5 min for dewaxing treatment; after washing with water, they were placed into hematoxylin staining solution for 3–5 min, differentiated with differentiation solution after washing, and returned to blue with bluing solution after washing; after rinsing with running water, they were dehydrated with 85% and 95% alcohol solutions for 5 min each successively; after immersed into eosin staining solution for 5 min, they were placed in anhydrous ethanol I for 5 min, anhydrous ethanol II for 5 min, anhydrous ethanol III for 5 min, xylene I for 5 min, and xylene II for 5 min for transparency treatment. After, they were sealed with neutral gum, they were examined (Nikon Eclipse E100, Tokyo, Japan) and imaged (Nikon DS-U3, Tokyo, Japan) using a microscope.
Masson staining: The paraffin sections were placed in xylene I for 20 min, xylene II for 20 min, anhydrous ethanol I for 5 min, anhydrous ethanol II for 5 min, and 75% alcohol for 5 min for dewaxing treatment; after washing with water, they were immersed into Masson A solution overnight, washed with water, then immersed into a mixture of Masson B and Masson C for 1 min, washed with water, then differentiated using an alcohol solution containing 1% hydrochloric acid. Then, they were washed with water, then immersed into Masson D solution for 6 min, washed with water, then immersed into Masson E solution for 1 min, drained, and directly immersed into Masson F solution for 30 s. Subsequently, the sections were rinsed with 1% glacial acetic acid for differentiation, dehydrated with anhydrous ethanol three times for 5 min each, treated with xylene for transparency for 5 min, and then sealed with neutral gum. The sections were examined (Nikon Eclipse E100, Japan) and imaged (Nikon DS-U3, Japan) using a microscope.

B. mori = details: CRISPR/cas9 tool and mature peptide subcutaneous injection; cited from earlier work
[4] = 0.025 mmol/L, after 5 min reaction
[5] = 0.05 mmol/L, after 5 min reaction
[6] = 0.1 mmol/L, after 5 min reaction

Compound	whitening effect relative to β-arbutin (Tyrosinase [1])	duration of whitening effect (Tyrosinase [1])	Inhibitory rate on tyrosinase (Tyrosinase [2]; [4])	Inhibitory rate on tyrosinase (Tyrosinase [2]; [5]) [%]	Inhibitory rate on tyrosinase (Tyrosinase [2]; [6]) [%]	Inhibitory rate on tyrosinase (Tyrosinase [2]; 5 mmol/L, after 5 min reaction) [%]	Inhibitory rate on tyrosinase, Average (Tyrosinase [2]; after 5 min reaction) [%]	highest inhibition rate on tyrosinase (Tyrosinase [2])	effect on tyrosinase reaction course (in words) (Tyrosinase [2])	inhibition rate on tyrosinase, all concentrations (Tyrosinase [2]; all concentrations (5, 0.1, 0.05, 0.025 mmol/L), after 5 min reaction)	pathological tissue findings (Masson staining and HE staining) [3]	melanin inhibition (melanocytes, melanin granules) ([3]; Masson and HE staining)	pigmentation inhibition in B. mori (B. mori)
Oc1ccc(OC2CCCCO2)cc1 (stereo not drawn) [deoxyarbutin]	more than 350 times												
OC[C@H]1O[C@@H](Oc2ccc(O)cc2)[C@H](O)[C@@H](O)[C@@H]1O [β-Arbutin, reference compound]		more than 8 weeks	32.70±0.33%	53.61±1.27	74.31±1.81	72.50±0.12	58.28±16.85	more than 70%					
EARHSGYLPYQMF [BommoOKA_type4, mature peptide of silkworm neuropeptide Orcokinin, […]]			13.96±0.21%	17.02±0.11		11.28±0.22	15.49±3.17	19.69%	a certain inhibitory effect on tyrosinase	greater than 10%	inflammatory factors were reduced, and epidermal hyperplasia improved		
FYHLYGQNFLDIDSPVSSFD [BommoOKA_type3]			5.54±0.2%		6.50±0.17	9.37±0.34	8.27±2.42		a certain inhibitory effect on tyrosinase				
NFDEIDRSSLNTFV [BommoOKA_type1, mature peptide of silkworm neuropeptide Orcokinin, […]]			5.16±0.14%	6.88±0.19	2.87±0.02	4.02±0.07	4.73±1.48		seemed to tend to accelerate tyrosinase		loosely arranged tissues	many stretched melanin granules emerged	
NFDEIDRSSMPFPYAI [BommoOKA_type2, mature peptide of silkworm neuropeptide Orcokinin, […]]			6.69±0.15%	6.12±0.09	5.16±0.09		7.02±1.88				Many inflammatory cells		key for pigmentation inhibition
NLDSLGGANF [BommoOKB_type1, mature peptide of silkworm neuropeptide Orcokinin, […]]			greater than 10%		8.6±1.39	-4.02±0.82	9.32±8.66	19.69%	a certain inhibitory effect on tyrosinase		significant epidermal hyperplasia		
YDYISPYG [BommoOKA_type5, mature peptide of silkworm neuropeptide Orcokinin, YDYISPYG]			-2.68±1.07%	3.25±1.57	-0.19±1.08	5.93±0.94	1.58±3.28				inflammatory factors were reduced, and epidermal hyperplasia improved		
